In series [1] the test system is Mycobacterium tuberculosis. In words: microbe, parasite or virus in culture. The following applies: H37Rv.
Series [2] in a line: physchem. The following applies: water, pH 7.
Description: Solubility of the compound in water at pH 7.0 by HPLC
The nature of series [3]: in vitro. The following applies: human, liver microsomes. (In general: Liver microsomes are a subcellular fraction often used to study metabolism.)
Description: Metabolic stability in human liver microsomes assessed as compound remaining after 1 hr
Series [4] in a line: in vitro. The following applies: CD1, mouse, liver microsomes.
Description: Metabolic stability in CD1 mouse liver microsomes assessed as compound remaining after 1 hr
The subject of series [5] is Mycobacterium tuberculosis. The series can be described thus: microbe, parasite or virus in culture. The following applies: H37Rv. This is another data set of the same source.
Description: Antitubercular activity against Mycobacterium tuberculosis H37Rv by LORA method
Series [6] can be described thus: AUC (0-infinity) in CD1 mouse plasma at 40 mg/kg, po administered as single dose. Type of series: ADME, organism-based. Details: time infinity, dose 40 mg/kg, route oral.
Series [7] is described as follows: Ratio of AUC (0-infinity) in lung to AUC (0-infinity) in plasma of CD1 mouse at 40 mg/kg, po administered as single dose. Type of series: ADME, organism-based. More on the design: dose 40 mg/kg, route oral.
Series [8] can be described thus: AUC (0-infinity) in CD1 mouse lung at 40 mg/kg, po administered as single dose. More on the design: time infinity, dose 40 mg/kg, route oral. The series is classed as ADME, organism-based.
Series [9] is described as follows: physchem. The following applies: water, pH 1.
Description: Solubility of the compound in water at pH 1.0 by HPLC
Series [10] in a line: Thermodynamic solubility in aqueous buffer at pH 1 at 20 degC by HPLC. The series is classed as physicochemical. The following applies: aqueous buffer.
A short description of series [11]: Half life in CD1 mouse lung at 40 mg/kg, po administered as single dose. Type of series: ADME, organism-based. Details: dose 40 mg/kg, route oral.
A short description of series [12]: Cmax in CD1 mouse plasma at 40 mg/kg, po administered as single dose. The series is classed as ADME, organism-based. More on the design: dose 40 mg/kg, route oral.
Series [13] can be described thus: Thermodynamic solubility in aqueous buffer at pH 7.4 at 20 degC by HPLC. Type of series: physicochemical.
Series [14] can be described thus: Cmax in CD1 mouse lung at 40 mg/kg, po administered as single dose. Type of series: ADME, organism-based. More on the design: dose 40 mg/kg, route oral.
A short description of series [15]: Half life in CD1 mouse plasma at 40 mg/kg, po administered as single dose. The series is classed as ADME, organism-based. More on the design: dose 40 mg/kg, route oral.

SMILES strings stand for the structures. ≈ marks a conversion by molar mass, not a printed value.

As a reminder, the solubility is the dissolved amount per volume that the medium holds. Low readings indicate little dissolved substance, high ones much dissolved substance. By amount remaining is commonly meant what is left of the initial amount, in per cent. `O=[N+]([O-])c1cn2c(n1)OC[C@@H](OCc1ccc(-c3ccc(OC(F)F)nc3)cc1)C2`: the MIC worked out at 0.045 µM (≈ 0.0188 µg/mL) in series [1] and 0.66 µM (≈ 0.276 µg/mL) in series [5]. Further, the solubility in “physchem [2]” is 3.2 µg/mL (≈ 7.65 µM). The share remaining at 1 h in “in vitro [3]” was 95%; in the series “in vitro [4]”, 75%.
The AUC(0-inf) is the area under the concentration-time curve extrapolated to infinity. A word on the Kp: it is the ratio of the level in a tissue or fluid to that in plasma or blood. The term thermodynamic solubility denotes solubility found after equilibrating the solid with the medium. The term half-life denotes the time needed for the level to fall by half in the phase considered. Low values mean fast loss, high ones slow loss. As a reminder, the Cmax is the peak of the concentration-time curve. `O=[N+]([O-])c1cn2c(n1)OC[C@@H](OCc1ccc(-c3ccc(C(F)(F)F)nc3)cc1)C2`: the AUC(0-inf) in [6] is 217 µg·h/mL; in series [8], 414 µg·h/mL. Also, the Kp in [7] was 1.9. Also, the MIC is 0.03 µM (≈ 0.0126 µg/mL) in [1] and 2.1 µM (≈ 0.883 µg/mL) in series [5]. Moreover, the solubility in the series “physchem [2]” is 1 µg/mL (≈ 2.38 µM); in the series “physchem [9]”, 11 µg/mL (≈ 26.2 µM). Besides, the thermodynamic solubility in series [10] was 0.38 µg/mL (≈ 0.904 µM); in [13], 0.17 µg/mL (≈ 0.404 µM). In series [11], this compound showed a half-life of 9.1 h. In “in vitro [3]”, this compound showed a share remaining at 1 h of 86%. For the same compound, the Cmax turned out to be 14000 ng/mL in series [12] and 373000 ng/mL in series [14].
As for `O=[N+]([O-])c1cn2c(n1)OC[C@@H](OCc1ccc(OC(F)(F)F)cc1)C2` [PRETOMANID], the solubility (thermodynamic) in [10] is 11 µg/mL (≈ 30.6 µM).
Regarding `O=[N+]([O-])c1cn2c(n1)OC[C@@H](OCc1ccc(-c3ncc(C(F)(F)F)cc3Cl)cc1)C2`, the MIC in [1] was determined as 0.025 µM (≈ 0.0114 µg/mL); in [5] it was 1 µM (≈ 0.455 µg/mL). Moreover, the solubility in “physchem [2]” is 3.3 µg/mL (≈ 7.26 µM); in the series “physchem [9]” it was 2 µg/mL (≈ 4.4 µM). Also, the values for the amount remaining at 1 h in the series “in vitro [3]” and in “in vitro [4]” were 86% and 80%, respectively.
For `O=[N+]([O-])c1cn2c(n1)OC[C@@H](OCc1ccc(-c3ccc(OC(F)(F)F)c(Cl)c3)nc1)C2`, the AUC(0-inf) in [6] was determined as 88 µg·h/mL; in series [8], 284 µg·h/mL. The MIC is 0.017 µM (≈ 0.008 µg/mL) in [1] and 1 µM (≈ 0.471 µg/mL) in series [5]. In the series “physchem [9]”, this compound returned a solubility of 39 µg/mL (≈ 82.8 µM). The results for the solubility (thermodynamic) in [10] and in series [13] were 17 µg/mL (≈ 36.1 µM) and 0.19 µg/mL (≈ 0.404 µM), respectively. The figures for the half-life in series [11] and in series [15] were 14 h and 22 h, respectively. The fraction remaining at 1 h is 87% in the series “in vitro [3]” and 77% in “in vitro [4]”. Moreover, the results for the Cmax in [12] and in [14] were 2900 ng/mL and 10000 ng/mL, respectively.
With `O=[N+]([O-])c1cn2c(n1)OC[C@@H](OCc1ccc(-c3ccc(OC(F)(F)F)c(F)c3)cn1)C2`, the results for the AUC(0-inf) in [6] and in series [8] were 137 µg·h/mL and 155 µg·h/mL, respectively. The Kp in series [7] amounted to 1.1. The MIC in [1] was 0.05 µM (≈ 0.0227 µg/mL); in [5] it was 1.3 µM (≈ 0.591 µg/mL). The solubility in “physchem [2]” came to 30 µg/mL (≈ 66 µM); in the series “physchem [9]”, 334 µg/mL (≈ 735 µM). The solubility (thermodynamic) in [10] is 67 µg/mL (≈ 147 µM); in series [13], 1.5 µg/mL (≈ 3.3 µM). For the same compound, the half-life in series [11] is 7.9 h; in [15] it was 8.4 h. Also, the figures for the share remaining at 1 h in “in vitro [3]” and in “in vitro [4]” were 97% and 86%, respectively. In addition, the Cmax in series [12] worked out at 7600 ng/mL; in [14] it was 9100 ng/mL.
For the compound `O=[N+]([O-])c1cn2c(n1)OC[C@@H](OCc1ccc(-c3ccc(F)nc3)cc1)C2`, the MIC worked out at 0.095 µM (≈ 0.0352 µg/mL) in series [1] and 2.1 µM (≈ 0.778 µg/mL) in series [5]. Also, the values for the solubility in “physchem [2]” and in “physchem [9]” were 8 µg/mL (≈ 21.6 µM) and 10 µg/mL (≈ 27 µM), respectively. The results for the amount remaining at 1 h in the series “in vitro [3]” and in “in vitro [4]” were 88% and 79%, respectively.
For the compound `O=[N+]([O-])c1cn2c(n1)OC[C@@H](OCc1ccc(-c3ccc(F)cc3)nc1)C2`, the AUC(0-inf) worked out at 61 µg·h/mL in [6] and 136 µg·h/mL in series [8]. The results for the MIC in series [1] and in [5] were 0.06 µM (≈ 0.0222 µg/mL) and 2.9 µM (≈ 1.07 µg/mL), respectively. Further, the solubility in the series “physchem [9]” was 1000 µg/mL (≈ 2700 µM). Further, the thermodynamic solubility is above 93 µg/mL in series [10] and 5.9 µg/mL (≈ 15.9 µM) in series [13]. Moreover, the half-life in series [11] was 2.8 h; in series [15], 2.7 h. Further, the fraction remaining at 1 h in “in vitro [3]” was determined as 88%; in “in vitro [4]”, 80%. The Cmax worked out at 5300 ng/mL in series [12] and 11000 ng/mL in series [14].
With `O=[N+]([O-])c1cn2c(n1)OC[C@@H](OCc1ccc(-c3ccc(OC(F)(F)F)cc3)cc1)C2`, the AUC(0-inf) was determined as 198 µg·h/mL in series [6] and 218 µg·h/mL in series [8]. Further, the solubility in “physchem [9]” was found to be 1.1 µg/mL (≈ 2.53 µM). In addition, the thermodynamic solubility in series [10] and in series [13] was below 0.1 µg/mL each time. This compound had a half-life in [11] of 13 h. Besides, the figures for the Cmax in series [12] and in series [14] were 7400 ng/mL and 9000 ng/mL, respectively.

The record behind these values is ChEMBL document CHEMBL1629541, “Synthesis and structure-activity relationships of aza- and diazabiphenyl analogues of the antitubercular drug (6S)-2-nitro-6-{[4-(trifluoromethoxy)benzyl]oxy}-6,7-dihydro-5H-imidazo[2,1-b][1,3]oxazine (PA-824)” (J Med Chem, 2010).
